Measurements published in patent publication US20050159599A1, “Cyclic compound, process for producing the same, and pest control agent” (priority 2002, published 2005).
Like-named read-outs stand apart in the source and are kept apart here.

Test system: Spodoptera litura
Test: Insecticidal effect for Spodoptera litura by spraying treatment to host crop (Test Example 2)
Assay type: in vivo
Settings: for pest or weed control at 100 ppm: 120 h, read-out: rate of dead pests (%)
Method: Insecticidal Effect for Spodoptera litura by Spraying Treatment to Host Crop
A pesticidal solution, which was prepared by dissolving 5 mg of test compound (represented by the compound Nos. in the above Examples) in 0.5-ml of acetone containing Tween 20 (trade name) and then diluting it to the prescribed concentration (100 ppm) with Dain (trade name, sticker) water diluted 5000-fold, was sprayed on a soybean whose primary leaves had developed completely with spray gun in the amounts wherein the pesticidal solution dripped. After drying the pesticidal solution, two primary leaves were cut off. The leaves were put into an ice cream cup (180 ml), and ten third-instar larvae of Spodoptera litura were set free therein. The cup was left in a temperature-controlled breeding room (25° C.). On the fifth day after, the number of surviving Spodoptera litura was examined. The rate of dead pests was calculated by the following formula. rate of dead pests (%)=(number of dead pests/number of test pests)×100

[1] = 100 ppm, sprayed on soybean, third-instar larvae of Spodoptera litura, fifth day after

SMILES | rate of dead pests (%) [1] [%] | also measured
O=C(c1c(F)cccc1F)N1COCN(c2ccc(Oc3ccc(C(F)(F)F)cc3Cl)cc2F)C1=O [I-3] | 100 | –
O=C(c1c(F)cccc1F)N1COCN(c2cc(Cl)c(OC(F)(F)C(F)F)c(Cl)c2)C1=O [I-5] | 100 | –
O=C(c1c(F)cccc1F)N1COCN(c2cc(Cl)c(OC(F)(F)C(F)C(F)(F)F)cc2Cl)C1=O (stereo not shown) [I-6] | 100 | –
O=C(c1c(F)cccc1F)N1COCN(c2ccc(SC(F)(F)C(F)Cl)cc2F)C1=O (stereo not shown) [I-7] | 100 | –
CSc1cc(F)c(N2COCN(C(=O)c3c(F)cccc3F)C2=O)c(F)c1 [I-31] | 100 | –
Cc1cc(SC(F)(F)F)ccc1N1COCN(C(=O)c2c(F)cccc2F)C1=O [I-68] | 100 | –
O=C(c1c(F)cccc1F)N1COCN(c2ccc(SC(F)(F)F)c(Cl)c2)C1=O [I-77] | 100 | –
O=C(c1c(F)cccc1F)N1COCN(c2ccc(SC(F)(F)F)c(F)c2)C1=O [I-80] | 100 | –
Cc1c(SC(F)(F)F)ccc(N2COCN(C(=O)c3c(F)cccc3F)C2=O)c1C [I-83] | 100 | –
Cc1cc(N2COCN(C(=O)c3c(F)cccc3F)C2=O)c(C)cc1SC(F)(F)F [I-86] | 100 | –
Cc1cc([S+]([O-])C(F)(F)F)c(C)cc1N1COCN(C(=O)c2c(F)cccc2F)C1=O (stereo not shown) [I-87] | 100 | –
Cc1cc(SC(F)(F)F)c(Cl)cc1N1COCN(C(=O)c2c(F)cccc2F)C1=O [I-89] | 100 | –
Cc1cc([S+]([O-])C(F)(F)F)c(Cl)cc1N1COCN(C(=O)c2c(F)cccc2F)C1=O (stereo not shown) [I-90] | 100 | –
O=C(c1c(F)cccc1F)N1COCN(c2ccc(SC(F)(F)F)c(Cl)c2Cl)C1=O [I-92] | 100 | –
O=C(c1c(F)cccc1F)N1COCN(c2ccc(SC(F)(F)F)c(Cl)c2F)C1=O [I-95] | 100 | –
O=C(c1c(F)cccc1F)N1COCN(c2ccc([S+]([O-])C(F)(F)F)c(Cl)c2F)C1=O (stereo not shown) [I-96] | 100 | –
O=C(c1c(F)cccc1F)N1COCN(c2cc(Cl)c([S+]([O-])C(F)(F)F)cc2F)C1=O (stereo not shown) [I-99] | 100 | –
O=C(c1c(F)cccc1F)N1COCN(c2ccc(SC(F)(F)F)c(F)c2F)C1=O [I-107] | 100 | –
O=C(c1c(F)cccc1F)N1COCN(c2cc(F)c(SC(F)(F)F)cc2F)C1=O [I-110] | 100 | –
O=C(c1c(F)cccc1F)N1COCN(c2cc(F)c(SC(F)(F)F)c(F)c2)C1=O [I-113] | 100 | –
O=C(c1c(F)cccc1F)N1COCN(c2c(F)cc([S+]([O-])C(F)(F)F)c(F)c2F)C1=O (stereo not shown) [I-117] | 100 | –
Cc1cc(SC(F)(F)F)c(F)cc1N1COCN(C(=O)c2c(F)cccc2F)C1=O [I-125] | 100 | –
O=C(c1c(F)cccc1F)N1COCN(c2ccc(SC(F)(F)C(F)(F)C(F)(F)F)cc2F)C1=O [I-143, 3-(2,6-difluorobenzoyl)-5-[2-fluoro-4-(1,1,2,2,3,3,3-heptafluoro-1-propylthio)phenyl]tetrahydro-4H-1,3,5-oxadiazin-4-one] | – | pest or weed control at 100 ppm (Spodoptera litura, in Glycine max): 100%
O=C(c1c(F)cccc1F)N1COCN(c2ccc(SC(F)(C(F)(F)F)C(F)(F)F)cc2F)C1=O [I-158, 3-(2,6-difluorobenzoyl)-5-[2-fluoro-4-(1,1,1,2,3,3,3-heptafluoro-2-propylthio)phenyl]tetrahydro-4H-1,3,5-oxadiazin-4-one] | – | pest or weed control at 100 ppm [1]: 100%
CSc1cc(F)c(N2COCN(C(=O)c3c(F)cccc3Cl)C2=O)c(F)c1 [I-208] | 100 | –
Cc1cc(N2COCN(C(=O)c3c(F)cccc3Cl)C2=O)ccc1SC(F)(F)F [I-248] | 100 | –

SMILES | rate of dead pests (%) [1] [%] | also measured
O=C(c1c(F)cccc1Cl)N1COCN(c2ccc(SC(F)(F)F)c(Cl)c2)C1=O [I-254] | 100 | –
O=C(c1c(F)cccc1Cl)N1COCN(c2ccc(SC(F)(F)F)c(F)c2)C1=O [I-257] | 100 | –
O=C(c1c(F)cccc1Cl)N1COCN(c2ccc([S+]([O-])C(F)(F)F)c(F)c2)C1=O (stereo not shown) [I-258] | 100 | –
Cc1cc(SC(F)(F)F)c(Cl)cc1N1COCN(C(=O)c2c(F)cccc2Cl)C1=O [I-266] | 100 | –
O=C(c1c(F)cccc1Cl)N1COCN(c2ccc(SC(F)(F)F)c(Cl)c2Cl)C1=O [I-269] | 100 | –
O=C(c1c(F)cccc1Cl)N1COCN(c2ccc([S+]([O-])C(F)(F)F)c(Cl)c2Cl)C1=O (stereo not shown) [I-270] | 100 | –
O=C(c1c(F)cccc1Cl)N1COCN(c2ccc(SC(F)(F)F)c(Cl)c2F)C1=O [I-272] | 100 | –
O=C(c1c(F)cccc1Cl)N1COCN(c2ccc([S+]([O-])C(F)(F)F)c(Cl)c2F)C1=O (stereo not shown) [I-273] | 100 | –
O=C(c1c(F)cccc1Cl)N1COCN(c2cc(Cl)c([S+]([O-])C(F)(F)F)cc2F)C1=O (stereo not shown) [I-276] | 100 | –
O=C(c1c(F)cccc1Cl)N1COCN(c2c(F)cc([S+]([O-])C(F)(F)F)cc2Cl)C1=O (stereo not shown) [I-279] | 100 | –
O=C(c1c(F)cccc1Cl)N1COCN(c2c(F)cc([S+]([O-])C(F)(F)F)cc2F)C1=O (stereo not shown) [I-282] | 100 | –
O=C(c1c(F)cccc1Cl)N1COCN(c2ccc(SC(F)(F)F)c(F)c2F)C1=O [I-284] | 100 | –
O=C(c1c(F)cccc1Cl)N1COCN(c2ccc([S+]([O-])C(F)(F)F)c(F)c2F)C1=O (stereo not shown) [I-285] | 100 | –
O=C(c1c(F)cccc1Cl)N1COCN(c2cc(F)c(SC(F)(F)F)cc2F)C1=O [I-287] | 100 | –
O=C(c1c(F)cccc1Cl)N1COCN(c2cc(F)c(SC(F)(F)F)c(F)c2)C1=O [I-290] | 100 | –
O=C(c1c(F)cccc1Cl)N1COCN(c2c(F)cc(SC(F)(F)F)c(F)c2F)C1=O [I-293] | 100 | –
O=C(c1c(F)cccc1Cl)N1COCN(c2c(F)cc([S+]([O-])C(F)(F)F)c(F)c2F)C1=O (stereo not shown) [I-294] | 100 | –
O=C(c1c(F)cccc1Cl)N1COCN(c2c(F)c(F)c(SC(F)(F)F)c(F)c2F)C1=O [I-296] | 100 | –
Cc1c(N2COCN(C(=O)c3c(F)cccc3Cl)C2=O)ccc(SC(F)(F)F)c1Cl [I-299] | 100 | –
Cc1c(N2COCN(C(=O)c3c(F)cccc3Cl)C2=O)ccc([S+]([O-])C(F)(F)F)c1Cl (stereo not shown) [I-300] | 100 | –
Cc1cc(SC(F)(F)F)c(F)cc1N1COCN(C(=O)c2c(F)cccc2Cl)C1=O [I-302] | 100 | –
Cc1cc([S+]([O-])C(F)(F)F)c(F)cc1N1COCN(C(=O)c2c(F)cccc2Cl)C1=O (stereo not shown) [I-303] | 100 | –
O=C(c1c(F)cccc1Cl)N1COCN(c2ccc(SC(F)(F)C(F)(F)F)cc2F)C1=O [I-305] | 100 | –
O=C(c1c(F)cccc1Cl)N1COCN(c2ccc(SC(F)(F)C(F)(F)C(F)(F)F)cc2F)C1=O [I-320] | 100 | –
O=C(c1c(F)cccc1Cl)N1COCN(c2ccc(SC(F)(F)C(F)(F)C(F)(F)F)cc2Cl)C1=O [I-323] | 100 | –
O=C(c1c(F)cccc1Cl)N1COCN(c2ccc([S+]([O-])C(F)(F)C(F)(F)C(F)(F)F)cc2Cl)C1=O (stereo not shown) [I-324] | 100 | –
